Results taken from PubChem BioAssay AID256 (DTP/NCI, 2004).
Toxic doses and inconclusive results are not listed.

System: CD2F1 mice, L1210 leukemia ip, survival T/C
Assay: NCI In Vivo Anticancer Drug Screen. Data for tumor model L1210 Leukemia (intraperitoneal) in CD2F1 (CDF1) mice
Conditions: endpoint: mean survival time, higher = longer survival
How it was run: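 Mice carrying a transplanted tumor received test compound or vehicle alone. The value is the measurement in the treated group divided by that in the vehicle-treated control group.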

[1] = dose: 25.0 mg/kg/injection, schedule: Q04DX003 (ip), vehicle: saline with Tween-80
[2] = dose: 50.0 mg/kg/injection, schedule: Q04DX003 (ip), vehicle: saline with Tween-80
[3] = dose: 100.0 mg/kg/injection, schedule: Q04DX003 (ip), vehicle: saline with Tween-80
[4] = dose: 50.0 mg/kg/injection, schedule: Q01DX009 (ip), vehicle: saline
[5] = dose: 100.0 mg/kg/injection, schedule: Q01DX009 (ip), vehicle: saline
[6] = dose: 50.0 mg/kg/injection, schedule: Q01DX009 (ip), vehicle: saline with Tween-80
[7] = dose: 25.0 mg/kg/injection, schedule: Q04DX003 (ip), vehicle: saline
[8] = dose: 50.0 mg/kg/injection, schedule: Q04DX003 (ip), vehicle: saline
[9] = dose: 100.0 mg/kg/injection, schedule: Q04DX003 (ip), vehicle: saline
[10] = dose: 400.0 mg/kg/injection, schedule: Q01DX001 (ip), vehicle: saline
[11] = dose: 100.0 mg/kg/injection, schedule: Q01DX009 (ip), vehicle: saline with Tween-80
[12] = dose: 200.0 mg/kg/injection, schedule: Q01DX009 (ip), vehicle: saline with Tween-80
[13] = dose: 400.0 mg/kg/injection, schedule: Q01DX009 (ip), vehicle: saline with Tween-80
[14] = dose: 75.0 mg/kg/injection, schedule: Q01DX001 (ip), vehicle: saline
[15] = dose: 150.0 mg/kg/injection, schedule: Q01DX001 (ip), vehicle: saline

SMILES: CCCCCn1c(Cl)c(/C=N/NC(N)=S)c2ccccc21
- T/C [1]: 102 % of control
- T/C [2]: 93 % of control
- T/C [3]: 96 % of control

SMILES: C[n+]1cccc(CCc2ccc[n+](C)c2)c1
- T/C [4]: 92 % of control
- T/C [5]: 104 % of control

SMILES: CN(C)c1ccc(/C=N/NC(=O)CNC(=O)Nc2cccc([N+](=O)[O-])c2)c(Cl)c1
- T/C [6]: 88 % of control

SMILES: CCCCCCC(O)CCCCCC
- T/C (dose: 100.0 mg/kg/injection, schedule: Q01DX009 (ip), vehicle: other): 96 % of control
- T/C (dose: 100.0 mg/kg/injection, schedule: Q04DX003 (ip), vehicle: other): 100 % of control
- T/C (dose: 200.0 mg/kg/injection, schedule: Q01DX009 (ip), vehicle: other): 98 % of control
- T/C (dose: 200.0 mg/kg/injection, schedule: Q04DX003 (ip), vehicle: other): 97 % of control
- T/C (dose: 400.0 mg/kg/injection, schedule: Q01DX009 (ip), vehicle: other): 98 % of control
- T/C (dose: 400.0 mg/kg/injection, schedule: Q04DX003 (ip), vehicle: other): 95 % of control

SMILES: COc1cc(C[C@H]2c3cc(OC)c(OC)cc3CCN2C)c(Oc2cc3c(cc2OC)-c2c(OC)c(OC)cc4c2[C@H](C3)N(C)CC4)cc1OC
- T/C (dose: 2.5 mg/kg/injection, schedule: Q03HX016 (ip), vehicle: saline): 92 % of control
- T/C (dose: 2.5 mg/kg/injection, schedule: Q03HX024 (ip), vehicle: saline): 94 % of control
- T/C (dose: 5.0 mg/kg/injection, schedule: Q03HX008 (ip), vehicle: saline): 95 % of control
- T/C (dose: 5.0 mg/kg/injection, schedule: Q03HX016 (ip), vehicle: saline): 93 % of control
- T/C (dose: 5.0 mg/kg/injection, schedule: Q03HX024 (ip), vehicle: saline): 91 % of control
- T/C (dose: 6.25 mg/kg/injection, schedule: Q01DX009 (ip), vehicle: saline): 95 % of control
- T/C (dose: 10.0 mg/kg/injection, schedule: Q03HX008 (ip), vehicle: saline): 93 % of control
- T/C (dose: 10.0 mg/kg/injection, schedule: Q03HX016 (ip), vehicle: saline): 91 % of control
- T/C (dose: 10.0 mg/kg/injection, schedule: Q03HX024 (ip), vehicle: saline): 92 % of control
- T/C (dose: 12.5 mg/kg/injection, schedule: Q01DX009 (ip), vehicle: saline): 94 % of control
- T/C (dose: 12.5 mg/kg/injection, schedule: Q01DX009 (oral), vehicle: saline): 98 % of control
- T/C (dose: 20.0 mg/kg/injection, schedule: Q03HX008 (ip), vehicle: saline): 95 % of control
- T/C (dose: 20.0 mg/kg/injection, schedule: Q03HX016 (ip), vehicle: saline): 95 % of control
- T/C (dose: 20.0 mg/kg/injection, schedule: Q03HX024 (ip), vehicle: saline): 96 % of control
- T/C (dose: 25.0 mg/kg/injection, schedule: Q01DX009 (ip), vehicle: saline): 94 % of control
- T/C (dose: 25.0 mg/kg/injection, schedule: Q01DX009 (oral), vehicle: saline): 101 % of control
- T/C [7]: 98 % of control
- T/C (dose: 25.0 mg/kg/injection, schedule: Q08DX002 (ip), vehicle: saline): 92 % of control
- T/C (dose: 40.0 mg/kg/injection, schedule: Q03HX008 (ip), vehicle: saline): 97 % of control
- T/C (dose: 40.0 mg/kg/injection, schedule: Q03HX016 (ip), vehicle: saline): 93 % of control
- T/C (dose: 40.0 mg/kg/injection, schedule: Q03HX024 (ip), vehicle: saline): 89 % of control
- T/C (dose: 50.0 mg/kg/injection, schedule: Q01DX001 (ip), vehicle: saline): 87 % of control
- T/C [4]: 94 % of control
- T/C (dose: 50.0 mg/kg/injection, schedule: Q01DX009 (oral), vehicle: saline): 96 % of control
- T/C [8]: 98 % of control
- T/C (dose: 50.0 mg/kg/injection, schedule: Q08DX002 (ip), vehicle: saline): 94 % of control
- T/C (dose: 80.0 mg/kg/injection, schedule: Q03HX008 (ip), vehicle: saline): 98 % of control
- T/C (dose: 100.0 mg/kg/injection, schedule: Q01DX001 (ip), vehicle: saline): 87 % of control
- T/C (dose: 100.0 mg/kg/injection, schedule: Q01DX001 (oral), vehicle: saline): 101 % of control
- T/C [5]: 94 % of control
- T/C (dose: 100.0 mg/kg/injection, schedule: Q01DX009 (oral), vehicle: saline): 106 % of control
- T/C [9]: 95 % of control
- T/C (dose: 100.0 mg/kg/injection, schedule: Q08DX002 (ip), vehicle: saline): 92 % of control
- T/C (dose: 200.0 mg/kg/injection, schedule: Q01DX001 (oral), vehicle: saline): 101 % of control
- T/C (dose: 200.0 mg/kg/injection, schedule: Q01DX009 (oral), vehicle: saline): 109 % of control
- T/C (dose: 200.0 mg/kg/injection, schedule: Q04DX003 (ip), vehicle: saline): 105 % of control
- T/C (dose: 200.0 mg/kg/injection, schedule: Q08DX002 (ip), vehicle: saline): 94 % of control
- T/C [10]: 89 % of control
- T/C (dose: 400.0 mg/kg/injection, schedule: Q01DX001 (oral), vehicle: saline): 103 % of control
- T/C (dose: 400.0 mg/kg/injection, schedule: Q08DX002 (ip), vehicle: saline): 90 % of control
- T/C (dose: 800.0 mg/kg/injection, schedule: Q01DX001 (ip), vehicle: saline): 90 % of control
- T/C (dose: 800.0 mg/kg/injection, schedule: Q01DX001 (oral), vehicle: saline): 104 % of control
- T/C (dose: 1600.0 mg/kg/injection, schedule: Q01DX001 (oral), vehicle: saline): 102 % of control

SMILES: CCCCN1C(=O)C(=O)N(c2ccc(S(N)(=O)=O)cc2)C1=O
- T/C [6]: 100 % of control
- T/C [11]: 89 % of control

SMILES: O=C1CCC(=O)N1CCC1=NCCc2cc(OCc3ccccc3)ccc21
- T/C [11]: 101 % of control
- T/C [3]: 102 % of control
- T/C [12]: 94 % of control
- T/C (dose: 200.0 mg/kg/injection, schedule: Q04DX003 (ip), vehicle: saline with Tween-80): 94 % of control
- T/C [13]: 97 % of control
- T/C (dose: 400.0 mg/kg/injection, schedule: Q04DX003 (ip), vehicle: saline with Tween-80): 90 % of control

SMILES: O=S1(=O)OCCCC1=C(c1ccccc1)c1ccccc1
- T/C (dose: 75.0 mg/kg/injection, schedule: Q01DX009 (ip), vehicle: saline): 102 % of control
- T/C (dose: 75.0 mg/kg/injection, schedule: Q04DX003 (ip), vehicle: saline): 101 % of control
- T/C (dose: 150.0 mg/kg/injection, schedule: Q01DX009 (ip), vehicle: saline): 97 % of control
- T/C (dose: 150.0 mg/kg/injection, schedule: Q04DX003 (ip), vehicle: saline): 94 % of control
- T/C (dose: 300.0 mg/kg/injection, schedule: Q01DX009 (ip), vehicle: saline): 97 % of control
- T/C (dose: 300.0 mg/kg/injection, schedule: Q04DX003 (ip), vehicle: saline): 97 % of control

SMILES: COc1ccc2c(c1)CCC1C2=CC(=O)/C1=C\[O-].COc1ccc2c(c1)CCC1C2=CC(=O)/C1=C\[O-].[Cu+2] (stereo not drawn)
- T/C (dose: 12.5 mg/kg/injection, schedule: Q01DX009 (ip), vehicle: saline with Tween-80): 92 % of control
- T/C (dose: 12.5 mg/kg/injection, schedule: Q04DX003 (ip), vehicle: saline with Tween-80): 93 % of control
- T/C (dose: 25.0 mg/kg/injection, schedule: Q01DX009 (ip), vehicle: saline with Tween-80): 95 % of control
- T/C [1]: 93 % of control
- T/C [6]: 94 % of control
- T/C [2]: 96 % of control

SMILES: c1cc(CSc2ncnc3nc[nH]c23)ccn1
- T/C (dose: 178.0 mg/kg/injection, schedule: Q01DX001 (ip), vehicle: saline): 118 % of control
- T/C (dose: 267.0 mg/kg/injection, schedule: Q01DX001 (ip), vehicle: saline): 115 % of control
- T/C [10]: 119 % of control

SMILES: O=S(=O)(O)O.[Zr]
- T/C [14]: 97 % of control
- T/C [15]: 91 % of control

SMILES: CCCCN(C)C(=O)Oc1cccc(NC(=O)OC)c1
- T/C [11]: 94 % of control
- T/C [12]: 100 % of control

SMILES: C=CCSc1ncnc2c1c(Br)cn2C1OC(CO)C(O)C1O (stereo not drawn)
- T/C [14]: 101 % of control
- T/C [15]: 107 % of control
- T/C (dose: 300.0 mg/kg/injection, schedule: Q01DX001 (ip), vehicle: saline): 106 % of control

SMILES: O=C(CCBr)NCNC(=O)CCBr
- T/C [12]: 152 % of control
- T/C [13]: 101 % of control

SMILES: NC(CCc1cc(O)ccc1O)C(=O)O (stereo not drawn)
- T/C [5]: 98 % of control
- T/C (dose: 200.0 mg/kg/injection, schedule: Q01DX009 (ip), vehicle: saline): 98 % of control
- T/C (dose: 400.0 mg/kg/injection, schedule: Q01DX009 (ip), vehicle: saline): 102 % of control

SMILES: COC12CCCC1S(=O)(=O)C2 (stereo not drawn)
- T/C [7]: 101 % of control
- T/C [8]: 108 % of control
- T/C [9]: 95 % of control
